Measurements from US6906057B1, “Methods for modulating FXR receptor activity” (Allergan, Inc., priority 1999, dated 2005).
Where a chain is given by its changes, count along the chain named.

Tests used:
FXR-RXRα heterodimer = molecular target: T1, FXR-RXRα heterodimer (UniProt P19793+Q62735); experiment: EcRE-TK-Luc transactivation in CV-1 cells cotransfected with FXR and RXR; format: cell-based, rat; details: for luciferase activity response, cells cotransfected with FXR and RXRα: Example 5, FIG. 6; for FXR activity as stated for panel compounds: Example 5 panel description, JH III 50 μM
T1 construct: Full-length recombinant rat FXR and human RXR (or RXRm) cloned into the cloning site of plasmid pCMX; expressed in transfected cells; host or cells: CV-1 cells
T1 sequence (Q62735 1-469): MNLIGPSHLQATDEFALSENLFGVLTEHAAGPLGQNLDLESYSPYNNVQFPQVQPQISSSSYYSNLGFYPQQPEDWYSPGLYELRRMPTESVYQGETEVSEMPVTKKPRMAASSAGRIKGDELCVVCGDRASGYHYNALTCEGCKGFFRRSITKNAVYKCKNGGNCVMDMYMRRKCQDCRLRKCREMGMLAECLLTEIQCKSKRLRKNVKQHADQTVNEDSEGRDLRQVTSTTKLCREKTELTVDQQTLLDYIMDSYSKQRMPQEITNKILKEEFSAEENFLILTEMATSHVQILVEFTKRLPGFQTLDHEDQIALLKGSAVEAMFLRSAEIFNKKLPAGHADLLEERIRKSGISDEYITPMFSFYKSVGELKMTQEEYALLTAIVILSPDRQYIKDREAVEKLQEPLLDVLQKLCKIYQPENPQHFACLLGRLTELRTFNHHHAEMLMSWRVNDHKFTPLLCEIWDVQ
T1 sequence (P19793 1-462): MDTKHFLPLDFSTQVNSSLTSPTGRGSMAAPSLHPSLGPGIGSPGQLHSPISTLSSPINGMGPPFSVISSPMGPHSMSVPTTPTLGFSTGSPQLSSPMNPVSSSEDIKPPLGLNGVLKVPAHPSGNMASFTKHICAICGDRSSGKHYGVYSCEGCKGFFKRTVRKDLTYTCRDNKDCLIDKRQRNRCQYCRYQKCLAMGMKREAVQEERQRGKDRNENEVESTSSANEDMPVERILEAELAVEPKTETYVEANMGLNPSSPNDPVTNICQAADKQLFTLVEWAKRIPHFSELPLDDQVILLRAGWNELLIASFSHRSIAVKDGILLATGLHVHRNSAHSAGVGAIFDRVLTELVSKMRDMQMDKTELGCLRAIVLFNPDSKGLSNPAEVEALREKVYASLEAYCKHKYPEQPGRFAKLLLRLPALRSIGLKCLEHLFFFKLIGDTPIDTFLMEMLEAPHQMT
From the text: (§1) Full-length recombinant rat FXR and human RXR (or RXRm) cloned into the cloning site of plasmid pCMX were cotransfected into CV-1 cells using the transient transfection method substantially as described above. Additionally, reporter plasmids were cotransfected with the expression plasmids as described above.
(§2) Luciferase reporter plasmids TK-Luc (described in Heyman et al., Cell 68:397 (1992), hereby incorporated by reference herein) were constructed by placing the firefly luciferase cDNA coding sequence in frame immediately downstream from the herpes virus thymidine kinase promoter (located at nucleotide residues −105 to +51) of the thymidine kinase nucleotide sequence). Six repeats of the EcRE response element, to which the DNA binding domain (DBD) of FXR binds, was also included upstream of the reporter gene. Further details are provided above.
(§3) AGN 10 has the structure: [drawing 3]
(§4) The cells were then lysed as described above, and luciferase activity was measured as an indication of the extent of heterodimer-induced FXR transactivation activity as described above Results are shown in FIG. 2.
Transient cotransfection of full length rat FXR, human RXR and the luciferase reporter plasmid was performed as above. A set of cotransfectant CV-1 cells was incubated in 1, 2, 10, and 20 μM AGN 10. Separate sets of cotransformants were given 1, 10, 20, 100, and 200 μM of either CDCA, DCA or LCA. All compounds were dissolved in DMSO. All transformant cells were permitted to incubate for approximately 44 hours with the indicated compound, then the amount of transactivation activity was measured using the luciferase assay, as indicated above.
(§5) These compounds were assayed for FXR modulating activity using the transactivation assay described above. All compounds were dissolved in DMSO. As above, the reporter plasmid contained 6 copies of the ecdysone response element (EcRE) placed along with the herpes virus thymidine kinase promoter upstream of the firefly luciferase gene. The reporter plasmid was transfected into CV-1 cells, either a) alone, b) with an expression plasmid encoding full length FXR, c) with an expression plasmid encoding full length RXRα, d) with two expression plasmids encoding full length FXR and RXRα respectively, and e) with two expression plasmids encoding full length FXR and RXRm, respectively. Plasmid constructions, transfection, incubation with test compounds, and luciferase activity assays were performed as described in Example 1.

FXR-RXRm heterodimer = molecular target: T2, FXR-RXRm heterodimer (Rattus norvegicus, UniProt Q62735); experiment: EcRE-TK-Luc transactivation in CV-1 cells cotransfected with FXR and RXRm; format: cell-based; details: for FXR transactivating activity: Example 3, FIG. 3, FXR-RXRm, 100 nM unless otherwise indicated, AGN 10 10 μM; for transactivation activity, cells cotransfected with FXR and RXRm: Example 5, FIG. 6
T2 construct: Full-length recombinant rat FXR and human RXR (or RXRm) cloned into the cloning site of plasmid pCMX; expressed in transfected cells; host or cells: CV-1 cells
T2 sequence (Q62735 1-469): T1 sequence (Q62735 1-469)
T2 sequence (P19793 1-462 D322P partner): T1 sequence (P19793 1-462) with D322P
From the text: Because FXR is known to bind to its response element as a heterodimer with RXR, and because the heterodimer can be activated by ligands to RXR, a mutant RXRα protein (RXRm; also referred to as D322P in the Figures) was constructed containing a single point mutation (Asp322 to Pro) in the ligand binding domain of RXR. The use of FXR-RXRm heterodimers, permits unambiguous identification of modulators of FXR activity amongst test compounds.
as §1, §2, §3, §4
CV-1 cells were cotransfected with mammalian expression vectors encoding full length FXR and RXRm, as well as with the luciferase reporter plasmid used in the last experiment. […] All compounds were dissolved in DMSO, except glycochenodeoxycholic acid, taurochenodeoxycholic acid, taurodeoxycholic acid and taurocholic acid, which were dissolved in phosphate buffered saline (PBS). Following exposure to the compounds, the cells were washed, lysed, and the luciferase activity measured as indicated above.
as §5

FXR-RXRα complex = molecular target: T3, FXR-RXRα complex (UniProt P19793+Q62735); details: Forman et al., Cell 81:687-693 (1995); cited from earlier work
T3 sequence (Q62735 1-469): T1 sequence (Q62735 1-469)
T3 sequence (P19793 1-462): T1 sequence (P19793 1-462)

FXR or RXR alone = details: Forman et al., Cell 81:687-693 (1995); cited from earlier work
[1] = Example 2, FIG. 2, ~44 hours, AGN 10 5-10 μM, LG 268 100 nM, bovine bile extract

For CC1(C)CCC(C)(C)c2cc(/C(=C/c3ccc(C(=O)C(=O)O)cc3)[Si](C)(C)C)ccc21 [AGN 10], the “FXR-mediated transactivation (luciferase activity), FXR-RXR cotransfected cells” value (FXR-RXRα heterodimer; [1]) was “almost as much activity”, the “concentration at which FXR agonist activity is at a maximum” value (FXR-RXRα heterodimer; Example 4, FIG. 4, rat FXR, human RXR, ~44 hours) was 10 µM and the “luciferase activity response, cells cotransfected with FXR and RXRα” value (FXR-RXRα heterodimer) was “highest activity response”. The “FXR-mediated transactivation (luciferase activity), FXR-RXRm cotransfected cells” value (FXR-RXRm heterodimer; [1]) was “almost as much activity”, the FXR transactivating activity (FXR-RXRm heterodimer; ~44 hours) was “measurable FXR transactivating activity” and the “transactivation activity, cells cotransfected with FXR and RXRm” value (FXR-RXRm heterodimer) was “significant levels of transctivation activity”. For the same compound, the “FXR ligand classification from the data” value (FXR-RXRm heterodimer; Example 5, conclusion) was “FXR agonists”.
In the case of CC(C)=CCC/C(C)=C/CO [geraniol], the “activation of the FXR-RXR complex” value (FXR-RXRα complex) is given as “did not activate”.
For CC(C)CCC[C@@H](C)[C@H]1CC[C@H]2[C@@H]3CC=C4C[C@@H](O)CC[C@]4(C)[C@H]3CC[C@]12C [cholesterol], the “activation of the FXR-RXR complex” value (FXR-RXRα complex) is given as “did not activate”.
For CC(C)=CCCC(C)=CCCC(C)=CC=O [farnesal], the “activation of the FXR-RXR complex” value (FXR-RXRα complex) is given as “somewhat less strongly”.
For CC(C)=CCCC(C)=CCCC(C)=CC(=O)O [farnesoic acid], the “activation of the FXR-RXR complex” value (FXR-RXRα complex) is given as “somewhat less strongly”.
With C[C@H](CCC(=O)O)[C@H]1CC[C@H]2[C@@H]3C(=O)C[C@@H]4C[C@H](O)CC[C@]4(C)[C@H]3CC[C@]12C [7-ketolithocholic acid] the FXR transactivating activity (FXR-RXRm heterodimer; ~44 hours) was “measurable FXR transactivating activity”.
In the case of juvenile hormone III, the “FXR activity as stated for panel compounds” value (shortened to “FXR activity as stated”) (FXR-RXRα heterodimer) is given as “an FXR agonist”, the “activation of the FXR-RXR complex” value (FXR-RXRα complex) is given as “activated” and the “activation of FXR or RXR alone” value (FXR or RXR alone) is given as “does not activate”.
With CC1(C)CCC(C)(C)c2cc(C(=O)Nc3ccc(C(=O)O)cc3)ccc21 [Am 580] the “FXR activity as stated” value (FXR-RXRα heterodimer) was “does not have FXR activity”.
For C[C@H](CCC(=O)O)[C@H]1CC[C@H]2[C@@H]3C(=O)C[C@@H]4CC(=O)CC[C@]4(C)[C@H]3CC[C@]12C [3-7-diketolithocholic acid, 3,7-diketolithocholic acid], the FXR transactivating activity (FXR-RXRm heterodimer; ~44 hours) was “measurable FXR transactivating activity”.
For CC(C)=CCC/C(C)=C/CC/C(C)=C/CC/C(C)=C/CO [geranylgeraniol], the “activation of the FXR-RXR complex” value (FXR-RXRα complex) is given as “somewhat less strongly”.
In the case of C/C(=C\c1ccc(C(=O)O)cc1)c1ccc2c(c1)C(C)(C)CCC2(C)C [TTNPB], the “luciferase activity response, cells cotransfected with FXR and RXRα” value (FXR-RXRα heterodimer) is reported as “highest activity response”, the “FXR activity as stated” value (FXR-RXRα heterodimer) is reported as “has FXR activity” and the “transactivation activity, cells cotransfected with FXR and RXRm” value (FXR-RXRm heterodimer) is reported as “significant levels of transctivation activity”.
For CC(C)=CCC/C(C)=C/CC/C(C)=C/CC/C=C(\C)CC/C=C(\C)CCC=C(C)C [squalene], the “activation of the FXR-RXR complex” value (FXR-RXRα complex) is given as “did not activate”.
